Measured values taken from US9963445B2, “Chemical compounds” (SYNGENTA PARTICIPATIONS AG, priority 2013, dated 2018).

Experiments:
Format in all cases: in vivo
[1] = system: Alopecurus myosuroides; test: Pre-emergence herbicidal activity, glasshouse pot test; details: pre-emergence spray, rate 1000 g/ha, evaluated after 13 days, scale 0-5
Outline: (§1)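 Pots of seeded soil were sprayed one day after sowing (pre-emergence) with compound formulated in acetone/water 50:50 with 0.5% Tween 20. Plants were grown in a glasshouse at 24/16 °C day/night, 14 h light, 65% humidity. Damage was scored after 13 days on a 0–5 scale (5 = total damage).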

[2] = system: Amaranthus retroflexus; test: as above; details: pre-emergence spray, rate 1000 g/ha, evaluated after 13 days, scale 0-5
Outline: as §1

[3] = system: Echinochloa crus-galli; test: as above; details: pre-emergence spray, rate 1000 g/ha, evaluated after 13 days, scale 0-5
Outline: as §1

[4] = system: Setaria faberi; test: as above; details: pre-emergence spray, rate 1000 g/ha, evaluated after 13 days, scale 0-5
Outline: as §1

[5] = system: Solanum nigrum; test: as above; details: pre-emergence spray, rate 1000 g/ha, evaluated after 13 days, scale 0-5
Outline: as §1

[6] = system: zea mays; test: as above; details: pre-emergence spray, rate 1000 g/ha, evaluated after 13 days, scale 0-5
Outline: as §1

[7] = system: Alopecurus myosuroides; test: Post-emergence herbicidal activity, glasshouse pot test; design: key: 0 = no damage to plant, 5 = total damage to plant; details: Application post-emergence, rate 1000 g/ha, evaluated after 13 days
Outline: (§2)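 Damage rated 0 (none) to 5 (total) 13 days after spraying. Plants were treated post-emergence at 8 days after sowing, using an acetone/water (50:50) formulation with 0.5% Tween 20 diluted to an aqueous spray.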

[8] = system: Amaranthus retroflexus; test: as above; design: key: 0 = no damage to plant, 5 = total damage to plant; details: Application post-emergence, rate 1000 g/ha, evaluated after 13 days
Outline: as §2

[9] = system: Echinochloa crus-galli; test: as above; design: key: 0 = no damage to plant, 5 = total damage to plant; details: Application post-emergence, rate 1000 g/ha, evaluated after 13 days
Outline: as §2

[10] = system: Setaria faberi; test: as above; design: key: 0 = no damage to plant, 5 = total damage to plant; details: Application post-emergence, rate 1000 g/ha, evaluated after 13 days
Outline: as §2

[11] = system: zea mays; test: as above; design: key: 0 = no damage to plant, 5 = total damage to plant; details: Application post-emergence, rate 1000 g/ha, evaluated after 13 days
Outline: as §2

[12] = system: Solanum nigrum; test: as above; details: Application post-emergence, rate 1000 g/ha, evaluated after 13 days
Procedure: Seeds of a variety of test species were sown in standard soil in pots. After 8 days cultivation (post-emergence) under controlled conditions in a glasshouse (at 24/16° C., day/night; 14 hours light; 65% humidity), the plants were sprayed with an aqueous spray solution derived from the formulation of the technical active ingredient in acetone/water (50:50) solution containing 0.5% Tween 20 (polyoxyethelyene sorbitan monolaurate, CAS RN 9005-64-5). The test plants were then grown in a glasshouse under controlled conditions (at 24/16° C., day/night; 14 hours light; 65% humidity) and watered twice daily. After 13 days, the test was evaluated (5=total damage to plant; 0=no damage to plant).
ABUTH=Abutilon theophrasti; SOLNI=Solanum nigrum; AMARE=Amaranthus retroflexus; SETFA=Setaria faberi; ALOMY=Alopecurus myosuroides; ECHCG=Echinochloa crus-galli, ZEAMX=zea mays.

[13] = system: Abutilon theophrasti; test: Pre-emergence herbicidal activity, glasshouse pot test; details: pre-emergence spray, rate 1000 g/ha, evaluated after 13 days, scale 0-5
Outline: as §1

[14] = system: Abutilon theophrasti; test: Post-emergence herbicidal activity, glasshouse pot test; design: key: 0 = no damage to plant, 5 = total damage to plant; details: Application post-emergence, rate 1000 g/ha, evaluated after 13 days
Outline: as §2

| Molecule | ALOMY damage score, application pre-emergence [1] | AMARE damage score, application pre-emergence [2] | ECHCG damage score, application pre-emergence [3] | SETFA damage score, application pre-emergence [4] | SOLNI damage score, application pre-emergence [5] | ZEAMX damage score, application pre-emergence [6] | ALOMY herbicidal damage score [7] | AMARE herbicidal damage score [8] | ECHCG herbicidal damage score [9] | SETFA herbicidal damage score [10] | ZEAMX herbicidal damage score [11] | SOLNI herbicidal damage score [12] | ABUTH damage score, application pre-emergence [13] | ABUTH herbicidal damage score [14] |
| --- | --- | --- | --- | --- | --- | --- | --- | --- | --- | --- | --- | --- | --- | --- |
| CC1=C(Cl)C(=O)N(c2ccc(C(F)(F)F)cn2)C1O (stereo not drawn) [AF70] | 3 | 5 | 3 | 5 | 5 | 0 | 5 | 5 | 5 | 5 | 2 | 5 |  |  |
| CC1=C(Br)C(=O)N(c2ccc(C(F)(F)F)cn2)C1O (stereo not drawn) [AG2] | 3 | 5 | 1 | 4 | 4 | 0 | 4 | 5 | 5 | 5 | 2 | 5 |  |  |
| CC1=C(Cl)C(=O)N(c2ccc(Cl)cn2)C1O (stereo not drawn) [AF65] | 2 | 5 | 1 | 2 | 4 | 0 | 4 | 5 | 4 | 5 | 1 | 5 |  |  |
| COC1=C(C)C(O)N(c2cc(C(F)(F)F)ccn2)C1=O (stereo not drawn) [AI1, 2-hydroxy-4-methoxy-3-methyl-1-[4-(trifluoromethyl)-2-pyridyl]-2H-pyrrol-5-one] | 4 | 5 | 4 | 5 |  | 3 | 4 | 5 | 5 | 5 | 4 |  | 5 | 5 |
| 4-chloro-2-hydroxy-3-methyl-1-[4-(trifluoromethyl)-5-vinyl-2-pyridyl]-2H-pyrrol-5-one [AF18] | 4 | 5 | 5 | 4 |  | 2 | 5 | 5 | 5 | 5 | 2 |  | 5 | 5 |
| CC1=C(Cl)C(=O)N(c2cc(OC(F)(F)F)ccn2)C1O (stereo not drawn) [AF74] | 3 | 5 | 4 | 4 |  | 2 | 4 | 5 | 5 | 5 | 2 |  | 2 | 5 |
| CC1=C(Cl)C(=O)N(c2cc(C(C)(C)C#N)ncn2)C1O (stereo not drawn) [CF14] | 3 | 5 | 5 | 5 |  | 2 | 5 | 5 | 5 | 5 | 5 |  | 5 | 5 |
| COC1=C(OC)C(O)N(c2cc(OC)ccn2)C1=O (stereo not drawn) [AK6] | 0 | 0 | 0 | 0 |  | 0 | 1 | 0 | 1 | 0 | 0 |  | 0 | 1 |
| COC1=C(OC)C(O)N(c2cc(Cl)c(Cl)cn2)C1=O (stereo not drawn) [AK7] | 0 | 0 | 4 | 0 |  | 0 | 4 | 5 | 5 | 5 | 1 |  | 2 | 5 |
| CC1=C(Cl)C(=O)N(c2cc(N(C)C)ncn2)C1O (stereo not drawn) [CF20] | 1 | 3 | 3 | 1 |  | 2 | 4 | 5 | 4 | 5 | 0 |  | 0 | 4 |
| COC1=C(C)C(O)N(c2ccc(C(=O)NC(C)(C)C)nn2)C1=O (stereo not drawn) [BI6] | 4 | 5 | 4 | 5 |  | 2 | 4 | 5 | 5 | 5 | 4 |  | 5 | 5 |
| COC1=C(OC)C(O)N(c2ccc(C(F)(F)F)nn2)C1=O (stereo not drawn) [BK2] | 0 | 0 | 0 | 0 |  | 0 | 1 | 1 | 1 | 1 | 0 |  | 0 | 1 |
| CC1=C(Cl)C(=O)N(c2cc(/C=C/C(C)(C)C)ccn2)C1O (stereo not drawn) [AF26] | 0 | 0 | 0 | 0 |  | 0 | 0 | 1 | 2 | 0 | 2 |  | 0 | 1 |
| CC1=C(Cl)C(=O)N(c2ncc(C(F)(F)F)cc2F)C1O (stereo not drawn) [AF63] | 0 | 0 | 0 | 0 |  | 0 | 1 | 0 | 1 | 1 | 0 |  | 0 | 1 |
